Key:
[1] = molecular target: Mitogen-activated protein kinase kinase kinase 14 (Homo sapiens) (UniProt Q99558); conditions: Compound concentration 1000.0 nM
[2] = molecular target: T1, Muscle, skeletal receptor tyrosine-protein kinase (Homo sapiens) (UniProt O15146); experiment: MUSK Invitrogen selectivity data (BI); conditions: Compound concentration 3.0 uM
T1 sequence (whole entry): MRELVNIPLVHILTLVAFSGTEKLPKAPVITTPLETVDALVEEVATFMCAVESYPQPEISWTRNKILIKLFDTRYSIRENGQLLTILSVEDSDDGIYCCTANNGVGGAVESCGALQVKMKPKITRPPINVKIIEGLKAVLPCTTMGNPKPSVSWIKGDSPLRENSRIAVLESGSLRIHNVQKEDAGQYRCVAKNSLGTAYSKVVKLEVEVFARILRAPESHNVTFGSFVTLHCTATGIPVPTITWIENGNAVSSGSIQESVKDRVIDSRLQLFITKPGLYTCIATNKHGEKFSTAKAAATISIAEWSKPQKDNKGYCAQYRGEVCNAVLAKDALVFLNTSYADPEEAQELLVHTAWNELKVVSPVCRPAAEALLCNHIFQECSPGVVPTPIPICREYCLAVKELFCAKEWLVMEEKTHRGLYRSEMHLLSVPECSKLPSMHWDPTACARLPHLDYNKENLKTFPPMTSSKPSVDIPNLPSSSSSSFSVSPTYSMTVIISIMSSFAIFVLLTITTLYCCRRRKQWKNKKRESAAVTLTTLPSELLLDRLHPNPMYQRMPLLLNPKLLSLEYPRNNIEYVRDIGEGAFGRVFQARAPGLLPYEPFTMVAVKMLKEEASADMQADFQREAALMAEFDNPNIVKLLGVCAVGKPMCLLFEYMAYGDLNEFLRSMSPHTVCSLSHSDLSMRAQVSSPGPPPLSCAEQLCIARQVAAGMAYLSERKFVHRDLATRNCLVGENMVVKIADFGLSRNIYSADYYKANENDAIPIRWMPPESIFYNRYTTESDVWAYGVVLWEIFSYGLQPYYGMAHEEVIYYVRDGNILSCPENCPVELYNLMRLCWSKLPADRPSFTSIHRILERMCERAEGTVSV

[3] = molecular target: Gamma-aminobutyric acid receptor subunit alpha-1 (Homo sapiens) (UniProt P14867); experiment: GABAA1(H) Cerep selectivity data (BI); conditions: filed as agonist, Compound concentration 20.0 uM
[4] = molecular target: T2, Mitogen-activated protein kinase kinase kinase 7 (Homo sapiens) (UniProt O43318); experiment: MAP3K7_K7IP1 Invitrogen selectivity data (BI); conditions: Compound concentration 3.0 uM
T2 sequence (whole entry): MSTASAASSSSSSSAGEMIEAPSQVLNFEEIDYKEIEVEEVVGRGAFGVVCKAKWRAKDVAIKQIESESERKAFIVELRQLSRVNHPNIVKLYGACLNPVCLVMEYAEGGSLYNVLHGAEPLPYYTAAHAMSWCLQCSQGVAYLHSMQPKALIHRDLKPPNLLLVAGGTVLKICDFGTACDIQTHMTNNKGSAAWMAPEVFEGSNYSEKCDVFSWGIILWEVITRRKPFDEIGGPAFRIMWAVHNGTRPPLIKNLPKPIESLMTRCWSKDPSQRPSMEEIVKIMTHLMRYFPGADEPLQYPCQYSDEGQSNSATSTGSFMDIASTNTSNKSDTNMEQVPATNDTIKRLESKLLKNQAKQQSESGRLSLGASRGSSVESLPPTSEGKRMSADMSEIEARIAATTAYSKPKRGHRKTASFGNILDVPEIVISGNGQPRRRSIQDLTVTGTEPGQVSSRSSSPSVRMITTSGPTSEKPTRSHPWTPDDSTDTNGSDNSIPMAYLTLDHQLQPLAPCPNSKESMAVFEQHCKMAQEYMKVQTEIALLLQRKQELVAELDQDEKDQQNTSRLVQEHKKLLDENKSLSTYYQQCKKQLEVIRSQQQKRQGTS

[5] = molecular target: T3, Serine/threonine-protein kinase 17A (Homo sapiens) (UniProt Q9UEE5); experiment: STK17A Invitrogen selectivity data (BI); conditions: Compound concentration 3.0 uM
T3 sequence (whole entry): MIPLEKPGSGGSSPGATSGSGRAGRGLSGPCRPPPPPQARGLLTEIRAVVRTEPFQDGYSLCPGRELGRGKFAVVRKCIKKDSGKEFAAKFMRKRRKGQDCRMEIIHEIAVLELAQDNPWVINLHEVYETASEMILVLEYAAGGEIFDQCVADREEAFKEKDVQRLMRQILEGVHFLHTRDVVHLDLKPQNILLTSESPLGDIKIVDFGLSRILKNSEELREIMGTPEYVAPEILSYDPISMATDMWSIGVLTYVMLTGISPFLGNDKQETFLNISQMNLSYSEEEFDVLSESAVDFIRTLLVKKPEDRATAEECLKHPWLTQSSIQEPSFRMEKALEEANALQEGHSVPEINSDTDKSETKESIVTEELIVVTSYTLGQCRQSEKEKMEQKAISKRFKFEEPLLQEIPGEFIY

[6] = molecular target: Neuronal acetylcholine receptor; alpha4/beta2 (Homo sapiens) (UniProt P17787+P43681); experiment: N_NEURO_A4B2 Cerep selectivity data (BI); type: protein-complex assay; conditions: filed as agonist, Compound concentration 20.0 uM
[7] = molecular target: P2X purinoceptor (Oryctolagus cuniculus) (UniProt G1U3D6); experiment: P2X/RB Eurofins-Panlabs selectivity data (BI); conditions: Compound concentration 10.0 uM
[8] = molecular target: Adenosine receptor A3 (Homo sapiens) (UniProt P0DMS8); experiment: A3/H Cerep selectivity data (BI); conditions: Compound concentration 20.0 uM
[9] = molecular target: G protein-coupled receptor kinase 5 (Homo sapiens) (UniProt P34947); experiment: GRK5 Invitrogen selectivity data (BI); conditions: Compound concentration 3.0 uM
[10] = molecular target: Gamma-aminobutyric acid receptor subunit alpha-1 (Rattus norvegicus) (UniProt P62813); experiment: GABAA MUSCIMOL CENT Eurofins-Panlabs selectivity data (BI); conditions: Compound concentration 10.0 uM
[11] = molecular target: DNA-dependent protein kinase catalytic subunit (Homo sapiens) (UniProt P78527); experiment: DNA-PK Invitrogen selectivity data (BI); conditions: Compound concentration 3.0 uM
[12] = molecular target: Nitric oxide synthase, inducible (Mus musculus) (UniProt P29477); experiment: INDUC_NOS Cerep selectivity data (BI); conditions: Compound concentration 20.0 uM
[13] = molecular target: 5-hydroxytryptamine receptor 1B (Homo sapiens) (UniProt P28222); conditions: Compound concentration 10.0 uM
[14] = molecular target: High affinity choline transporter 1 (Homo sapiens) (UniProt Q9GZV3); experiment: CHT1/H Cerep selectivity data (BI); conditions: Compound concentration 20.0 uM
[15] = molecular target: Serine/threonine-protein kinase pim-1 (Homo sapiens) (UniProt P11309); experiment: PIM1 Invitrogen selectivity data (BI); conditions: Compound concentration 3.0 uM
[16] = molecular target: Receptor tyrosine-protein kinase erbB-4 (Homo sapiens) (UniProt Q15303); experiment: ERBB4 Invitrogen selectivity data (BI); conditions: Compound concentration 3.0 uM
[17] = test system: Platelet-derived growth factor receptor alpha (Homo sapiens), P16234 [V561D]; experiment: PDGFRA V561D Invitrogen selectivity data (BI); conditions: Compound concentration 3.0 uM
[18] = molecular target: Cyclin-dependent kinase 2/cyclin A (Homo sapiens) (UniProt P24941+P20248+P78396); experiment: CDK2(CYCA)_CE Cerep selectivity data (BI); type: protein-complex assay; conditions: Compound concentration 20.0 uM
[19] = molecular target: Glycine receptor subunit alpha-1 (Rattus norvegicus) (UniProt P07727); experiment: GLYSTRYANTAG Cerep selectivity data (BI); conditions: filed as antagonist, Compound concentration 20.0 uM

Sequence of G protein-coupled receptor kinase 5 (Homo sapiens) (P34947 whole entry, looked up): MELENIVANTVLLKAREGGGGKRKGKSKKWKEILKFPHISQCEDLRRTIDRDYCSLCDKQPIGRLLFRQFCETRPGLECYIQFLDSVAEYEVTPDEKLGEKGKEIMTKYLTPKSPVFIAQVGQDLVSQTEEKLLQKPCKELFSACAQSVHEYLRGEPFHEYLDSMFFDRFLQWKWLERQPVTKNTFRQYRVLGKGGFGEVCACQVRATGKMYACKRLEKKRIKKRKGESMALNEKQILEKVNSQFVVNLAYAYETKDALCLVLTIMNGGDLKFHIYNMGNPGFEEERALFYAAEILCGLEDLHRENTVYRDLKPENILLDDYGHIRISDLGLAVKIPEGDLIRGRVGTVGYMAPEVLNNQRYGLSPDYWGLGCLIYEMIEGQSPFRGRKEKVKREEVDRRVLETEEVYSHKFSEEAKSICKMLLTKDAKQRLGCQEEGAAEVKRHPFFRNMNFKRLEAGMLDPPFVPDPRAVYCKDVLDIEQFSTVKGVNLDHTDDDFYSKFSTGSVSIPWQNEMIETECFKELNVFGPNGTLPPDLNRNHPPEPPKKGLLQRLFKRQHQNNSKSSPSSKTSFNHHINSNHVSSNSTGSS
Sequence of Serine/threonine-protein kinase pim-1 (Homo sapiens) (P11309 whole entry, looked up): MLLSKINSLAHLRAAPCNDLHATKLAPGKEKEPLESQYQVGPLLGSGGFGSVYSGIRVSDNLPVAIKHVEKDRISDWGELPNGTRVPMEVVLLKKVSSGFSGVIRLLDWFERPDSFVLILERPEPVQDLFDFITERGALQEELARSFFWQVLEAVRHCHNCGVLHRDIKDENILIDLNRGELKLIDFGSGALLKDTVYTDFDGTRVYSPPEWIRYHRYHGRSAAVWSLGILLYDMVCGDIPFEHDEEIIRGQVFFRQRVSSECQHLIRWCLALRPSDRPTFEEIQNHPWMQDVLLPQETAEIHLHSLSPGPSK
Sequence of 5-hydroxytryptamine receptor 1B (Homo sapiens) (P28222 whole entry): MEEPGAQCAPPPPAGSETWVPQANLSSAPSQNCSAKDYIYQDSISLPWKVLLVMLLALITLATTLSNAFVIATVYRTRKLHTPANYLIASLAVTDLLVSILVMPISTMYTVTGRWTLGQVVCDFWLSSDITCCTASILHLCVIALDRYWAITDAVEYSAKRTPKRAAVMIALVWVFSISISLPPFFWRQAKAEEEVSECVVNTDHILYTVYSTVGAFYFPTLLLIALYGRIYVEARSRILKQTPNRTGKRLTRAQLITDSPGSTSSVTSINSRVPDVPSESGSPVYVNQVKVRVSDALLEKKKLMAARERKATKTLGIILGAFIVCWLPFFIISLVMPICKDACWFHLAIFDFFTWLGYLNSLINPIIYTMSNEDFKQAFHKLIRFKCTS
Sequence of Receptor tyrosine-protein kinase erbB-4 (Homo sapiens) (Q15303 whole entry): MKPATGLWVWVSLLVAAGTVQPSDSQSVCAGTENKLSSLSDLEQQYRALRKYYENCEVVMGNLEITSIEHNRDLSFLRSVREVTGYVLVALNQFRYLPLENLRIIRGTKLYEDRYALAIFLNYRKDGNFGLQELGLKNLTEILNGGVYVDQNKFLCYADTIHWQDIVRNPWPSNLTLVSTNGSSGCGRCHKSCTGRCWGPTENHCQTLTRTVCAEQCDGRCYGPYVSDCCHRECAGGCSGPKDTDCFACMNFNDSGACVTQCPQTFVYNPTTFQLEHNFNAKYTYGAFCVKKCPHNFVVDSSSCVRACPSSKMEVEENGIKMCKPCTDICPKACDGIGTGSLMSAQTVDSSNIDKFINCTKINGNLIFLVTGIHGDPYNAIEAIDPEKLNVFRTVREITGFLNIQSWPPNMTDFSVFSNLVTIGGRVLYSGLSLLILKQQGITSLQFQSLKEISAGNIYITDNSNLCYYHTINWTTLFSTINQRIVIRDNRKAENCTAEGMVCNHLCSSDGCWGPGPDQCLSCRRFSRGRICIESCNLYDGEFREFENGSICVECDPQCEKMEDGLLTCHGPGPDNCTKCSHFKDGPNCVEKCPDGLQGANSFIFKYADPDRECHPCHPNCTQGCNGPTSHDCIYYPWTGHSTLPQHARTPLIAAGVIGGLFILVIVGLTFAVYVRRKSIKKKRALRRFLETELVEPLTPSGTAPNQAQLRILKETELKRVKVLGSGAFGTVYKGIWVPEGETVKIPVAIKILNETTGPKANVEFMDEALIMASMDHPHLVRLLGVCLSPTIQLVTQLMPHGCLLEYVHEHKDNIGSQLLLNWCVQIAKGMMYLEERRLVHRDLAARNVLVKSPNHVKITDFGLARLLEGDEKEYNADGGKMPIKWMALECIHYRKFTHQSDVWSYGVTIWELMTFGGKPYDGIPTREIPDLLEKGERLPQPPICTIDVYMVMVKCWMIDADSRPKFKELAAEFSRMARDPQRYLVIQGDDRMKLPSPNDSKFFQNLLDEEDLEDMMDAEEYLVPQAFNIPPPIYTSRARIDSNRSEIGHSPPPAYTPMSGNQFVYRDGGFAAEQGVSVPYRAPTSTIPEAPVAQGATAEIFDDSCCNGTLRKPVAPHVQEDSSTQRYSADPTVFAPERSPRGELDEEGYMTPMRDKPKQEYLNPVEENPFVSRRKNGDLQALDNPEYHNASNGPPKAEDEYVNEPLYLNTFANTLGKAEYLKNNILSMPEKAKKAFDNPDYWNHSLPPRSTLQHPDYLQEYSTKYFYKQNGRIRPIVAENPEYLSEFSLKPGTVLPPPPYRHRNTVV
Sequence of Gamma-aminobutyric acid receptor subunit alpha-1 (Homo sapiens) (P14867 whole entry): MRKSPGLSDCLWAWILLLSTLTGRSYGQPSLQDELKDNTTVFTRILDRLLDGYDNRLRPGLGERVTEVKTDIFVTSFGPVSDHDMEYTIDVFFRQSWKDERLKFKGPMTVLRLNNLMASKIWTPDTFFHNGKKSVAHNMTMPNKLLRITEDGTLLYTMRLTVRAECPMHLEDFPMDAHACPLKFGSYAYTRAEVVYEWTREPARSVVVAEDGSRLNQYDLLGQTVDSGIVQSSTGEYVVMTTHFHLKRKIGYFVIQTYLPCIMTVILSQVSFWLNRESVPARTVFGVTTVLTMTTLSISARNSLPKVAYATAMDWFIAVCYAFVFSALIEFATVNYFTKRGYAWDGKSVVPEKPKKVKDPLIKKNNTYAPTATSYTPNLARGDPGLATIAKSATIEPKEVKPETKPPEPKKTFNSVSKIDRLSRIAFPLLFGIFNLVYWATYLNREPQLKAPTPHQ
Sequence of P2X purinoceptor (Oryctolagus cuniculus) (G1U3D6 as listed by the source): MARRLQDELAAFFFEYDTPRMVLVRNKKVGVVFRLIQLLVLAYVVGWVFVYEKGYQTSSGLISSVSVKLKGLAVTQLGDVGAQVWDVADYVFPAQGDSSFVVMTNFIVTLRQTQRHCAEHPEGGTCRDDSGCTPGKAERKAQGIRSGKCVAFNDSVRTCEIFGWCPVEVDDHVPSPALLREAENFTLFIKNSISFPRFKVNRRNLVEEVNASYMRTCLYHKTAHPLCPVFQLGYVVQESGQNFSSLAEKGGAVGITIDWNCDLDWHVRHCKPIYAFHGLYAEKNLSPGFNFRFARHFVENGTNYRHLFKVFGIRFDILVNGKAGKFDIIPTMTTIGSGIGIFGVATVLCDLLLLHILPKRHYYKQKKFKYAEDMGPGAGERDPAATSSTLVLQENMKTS
Sequence of Mitogen-activated protein kinase kinase kinase 14 (Homo sapiens) (Q99558 whole entry, looked up): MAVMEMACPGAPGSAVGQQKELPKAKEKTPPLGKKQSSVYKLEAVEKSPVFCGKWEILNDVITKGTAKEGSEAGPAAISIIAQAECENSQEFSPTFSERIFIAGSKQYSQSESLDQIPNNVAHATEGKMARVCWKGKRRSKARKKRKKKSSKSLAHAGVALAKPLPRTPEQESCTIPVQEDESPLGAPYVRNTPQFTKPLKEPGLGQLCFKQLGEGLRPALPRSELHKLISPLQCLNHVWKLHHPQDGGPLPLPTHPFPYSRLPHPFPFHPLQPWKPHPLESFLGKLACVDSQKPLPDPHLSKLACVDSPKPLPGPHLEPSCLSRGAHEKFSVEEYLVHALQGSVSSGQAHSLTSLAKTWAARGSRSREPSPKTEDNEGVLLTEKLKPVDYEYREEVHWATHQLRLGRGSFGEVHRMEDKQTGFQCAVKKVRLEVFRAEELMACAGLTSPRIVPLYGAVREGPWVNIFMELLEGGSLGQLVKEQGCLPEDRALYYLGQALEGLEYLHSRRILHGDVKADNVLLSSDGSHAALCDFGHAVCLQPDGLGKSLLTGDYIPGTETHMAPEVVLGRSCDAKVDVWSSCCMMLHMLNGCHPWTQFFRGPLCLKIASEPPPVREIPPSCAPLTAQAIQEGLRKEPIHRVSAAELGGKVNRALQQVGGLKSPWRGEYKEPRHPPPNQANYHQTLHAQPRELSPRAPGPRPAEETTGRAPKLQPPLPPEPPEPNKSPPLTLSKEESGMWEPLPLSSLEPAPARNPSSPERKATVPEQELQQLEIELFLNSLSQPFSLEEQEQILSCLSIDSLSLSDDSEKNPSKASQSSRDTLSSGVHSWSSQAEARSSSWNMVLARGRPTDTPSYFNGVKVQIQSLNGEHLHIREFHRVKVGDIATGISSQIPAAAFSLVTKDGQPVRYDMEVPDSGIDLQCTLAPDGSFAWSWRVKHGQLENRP
Sequence of High affinity choline transporter 1 (Homo sapiens) (Q9GZV3 whole entry): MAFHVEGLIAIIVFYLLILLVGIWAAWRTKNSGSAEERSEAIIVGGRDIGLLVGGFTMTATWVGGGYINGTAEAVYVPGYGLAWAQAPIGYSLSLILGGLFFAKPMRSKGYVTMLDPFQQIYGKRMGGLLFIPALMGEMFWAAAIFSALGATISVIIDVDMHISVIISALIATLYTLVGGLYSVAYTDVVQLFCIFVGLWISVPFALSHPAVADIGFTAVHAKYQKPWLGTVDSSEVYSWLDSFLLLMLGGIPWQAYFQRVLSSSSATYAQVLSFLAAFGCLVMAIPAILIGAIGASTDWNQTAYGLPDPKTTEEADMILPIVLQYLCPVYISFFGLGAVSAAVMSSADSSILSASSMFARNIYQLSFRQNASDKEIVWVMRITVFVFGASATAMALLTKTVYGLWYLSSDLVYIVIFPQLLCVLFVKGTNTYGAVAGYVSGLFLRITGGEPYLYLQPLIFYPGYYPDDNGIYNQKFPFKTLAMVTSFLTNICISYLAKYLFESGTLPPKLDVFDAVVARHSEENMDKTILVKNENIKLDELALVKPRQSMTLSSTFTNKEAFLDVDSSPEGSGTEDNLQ

CN(C)C(=O)Cn1cc(-c2nc(C3(c4ccc(-c5cnc(N)nc5)cc4)CC3)no2)cn1 [BI 0153]
inactive: residual activity [1] 83%

CN(C)C(=O)Cn1cc(-c2nc([C@@](C)(c3ccc(-c4cnc(N)nc4)cc3)C3CC3)no2)cn1 [BI 665915]
inactive: residual activity [2] 97.5% | residual activity [3] 105% | residual activity [4] 87% | residual activity [5] 96% | residual activity [6] 113% | residual activity [7] 111% | residual activity [8] 64% | residual activity [9] 100% | residual activity [10] 100% | residual activity [11] 91% | residual activity [12] 79% | inhibition [13] -3.77% | residual activity [14] 101% | residual activity [15] 97.5% | residual activity [16] 98.5% | residual activity [17] 85% | residual activity [18] 118% | residual activity [19] 118%
